Data published in US20150232876A1, “Use of a Receptor Kinase Having LysM Motifs in Order to Improve the Response of Plants to Lipochitooligosaccharides” (INSTITUT NATIONAL DE LA RECHERCHE AGRONOMIQUE, priority 2012, published 2015).

Assays:
LYR3 = LYR3 (Medicago truncatula, UniProt G7KAT5); assay: Saturation and competitive binding on LYR3-YFP expressed in N. benthamiana leaf membrane fractions; settings: for Ki: LYR3-YFP in N. benthamiana leaf membranes, competition with 0.9 nM LCO-IV(35S, C16:2Δ2,9), read-out: Affinity (nM) for LYR3 (Ki); for affinity / competition for binding to LYR3 (in words): competition with radioactive LCO
From the text: Genes LYR3, LYK9 and LYR6 were inserted into a binary vector, fused in C-terminal with a fluorescent protein (Yellow Fluorescent Protein: YFP) and introduced into Nicotiana benthamiana leaves using agroinfiltration by Agrobacterium tumefaciens. Meanwhile, NFP and LYK3 genes which encode putative receptors […] Nod factors were inserted into the same vectors and expressed in the same conditions.
3 days after agro-infiltration, leaves of N. benthamiana expressing the different constructs were harvested and ground in liquid nitrogen. Membrane fractions were prepared from the ground material, using the same protocol as that described above for the preparation of microsomal fractions, except that 0.6% (w/v) of polyvinyl-polypyrrolidone were added to extraction buffer. After centrifugation at 3000×g, the supernatant was collected and centrifuged at 45000×g. The resulting (membrane fraction) pellet was resuspended in binding buffer, and stored at −80° C. in the presence of 10% or 50% glycerol, until use.
Membrane proteins were separated by 10% polyacrylamide gel electrophoresis in SDS, and transferred onto nitrocellulose membrane, and detection of recombinant proteins made using anti-GFP antibody. Meanwhile, the properties of specific binding to LCOs were assessed by equilibrium binding, as described in Example 1, using 0.8 to 2.4 nM of LCO-IV (^35S, C16:2Δ2, 9) +/−2 μM of unlabeled LCO-IV (S, C16: 2Δ2, 9), and 25 micrograms to 80 micrograms of membrane protein, depending of the expression level of the protein labeled with YFP.
To further characterize the binding properties of the protein LYR3, saturation binding experiments using LCO-IV (^35S, C16:2Δ2, 9) and competitive binding experiments in the presence of different COs or LCOs were performed.

PsLYR3 = PsLYR3 (Lathyrus oleraceus, UniProt A0A9D5BD18); assay: Equilibrium, saturation and competitive binding on MtLYR3 ortholog expressed in N. benthamiana leaves; design: species or system Pisum sativum; settings: PsLYR3; for Ki: read-out: Affinity (Ki)
From the text: (§1) In legumes, MtLYR3 orthologs have been identified in P. sativum, P. vulgaris and L. japonicus. In G. max orthologs exist in duplicate due to a duplication of the genome. The corresponding genes have been cloned and sequenced. A few differences in sequence compared with sequences in the databases were found which could be explained by the use of different varieties of plants or by sequencing errors in databases. The cloned genes were introduced into binary vectors, in C-terminal fusion with the fluorescent protein YFP, and introduced into Nicotiana benthamiana leaves using agroinfiltration by Agrobacterium tumefaciens, as described above in Example 3. The membrane fractions were isolated, their protein content was analyzed by electrophoresis under denaturing conditions, followed by immunodetection using anti-GFP antibody as described in Example 3, and their ability to interact with LCOs was determined by equilibrium binding, as described in Example 1, in the presence of 1 nM LCO-IV (S^35, C16:2Δ2, 9). The value of specific binding is determined by the value of difference between the total binding and the nonspecific binding obtained for incubation in the presence of an excess (2 μM) of unlabeled ligand. For comparison, the ability to interact of LjNFR5 and LjNFR1 receptors, identified in L. japonicus to play a role in nodulation by a genetic approach (MADSEN et al, Nature, 425, 637-40, 2003. RADUTOIU et al., Nature, 425, 585-92, 2003a) and respective orthologs of LYK3 and NFP in M. truncatula was determined under the same conditions.
(§2) To further characterize the binding properties of MtLYR3 orthologs to LCOs, saturation and competitive binding experiments in the presence of different COs or LCOs were performed.

GmLYR3-1 = GmLYR3-1 (Glycine max, UniProt A5YJW2); assay: as above; settings: GmLYR3-1; for Ki: read-out: Affinity (Ki)
From the text: as §1, §2

GmLYR3-11 = GmLYR3-11 (Glycine max, UniProt I1LHL9); assay: as above; settings: GmLYR3-11; for Ki: read-out: Affinity (Ki)
From the text: as §1, §2

LjLYS12 = LjLYS12 (Lotus japonicus, UniProt D3KTZ9); assay: as above; settings: LjLYS12; for Ki: read-out: Affinity (Ki)
From the text: as §1, §2

PvLYR3 = PvLYR3 (Phaseolus vulgaris, UniProt V7CFC1); assay: as above; settings: PvLYR3; for Ki: read-out: Affinity (Ki)
From the text: as §1, §2

[1] = system: 100 kDa polypeptide (MtNFBS2); assay: Photolabeling of the 100 kDa polypeptide in membrane fractions, with excess competitors; format: binding, Medicago truncatula; settings: 2 μM competitor, 5 nM azido ligand, dmi3 membrane fraction
From the text: To assess the molecular mass of the affine protein of Nod factors responsible for binding properties of MtNFBS2, a photolabeling with Nod factors analogs containing a photoactivatable group, which after irradiation in a given wavelength reactive species which can form a covalent bond with the surrounding molecules, has been taken. […] homologues of these molecules have been synthesized and labeled with ^35S to enable detection of the stable complex ligand/binding protein.
For photolabeling, 5 nM of radioactive and photoactivatable ligand, alone or in the presence of an excess (2 μM) different competitors were incubated in binding buffer, in the same conditions as described in Example 1 above for the binding experiments at equilibrium, with 300 micrograms of membrane protein fraction obtained from cultured cells of wild-type Medicago truncatula (A 17), or the dmi3 mutant of Medicago truncatula. After 1 hour of incubation, the samples were irradiated for 5 min at 254 nm or 10 min at 365 nm with a fluorescent tube at a distance of 4 cm. The free ligand was removed by centrifugation, and the membrane pellet was washed two times in binding buffer.
The membrane pellet proteins were separated by polyacrylamide gel electrophoresis in 10% SDS, and transferred onto nitrocellulose membrane, and detection was carried out by autoradiography.

PvLYR3, sequence (V7CFC1 entry or part of it): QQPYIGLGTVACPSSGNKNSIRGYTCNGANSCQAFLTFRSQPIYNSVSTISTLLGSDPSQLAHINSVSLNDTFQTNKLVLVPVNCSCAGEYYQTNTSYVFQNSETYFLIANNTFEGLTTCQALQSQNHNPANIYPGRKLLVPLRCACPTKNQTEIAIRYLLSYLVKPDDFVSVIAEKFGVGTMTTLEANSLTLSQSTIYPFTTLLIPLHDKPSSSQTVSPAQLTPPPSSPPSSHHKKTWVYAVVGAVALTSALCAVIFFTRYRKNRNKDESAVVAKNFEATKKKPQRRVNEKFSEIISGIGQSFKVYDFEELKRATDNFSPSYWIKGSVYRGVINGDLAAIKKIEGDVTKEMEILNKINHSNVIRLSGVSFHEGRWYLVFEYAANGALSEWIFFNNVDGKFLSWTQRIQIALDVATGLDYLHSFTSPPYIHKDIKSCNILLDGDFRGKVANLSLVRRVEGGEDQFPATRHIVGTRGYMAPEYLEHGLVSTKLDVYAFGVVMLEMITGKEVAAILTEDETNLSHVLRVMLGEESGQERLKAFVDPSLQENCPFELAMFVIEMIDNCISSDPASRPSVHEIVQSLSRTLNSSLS
GmLYR3-1, sequence (A5YJW2 entry or part of it): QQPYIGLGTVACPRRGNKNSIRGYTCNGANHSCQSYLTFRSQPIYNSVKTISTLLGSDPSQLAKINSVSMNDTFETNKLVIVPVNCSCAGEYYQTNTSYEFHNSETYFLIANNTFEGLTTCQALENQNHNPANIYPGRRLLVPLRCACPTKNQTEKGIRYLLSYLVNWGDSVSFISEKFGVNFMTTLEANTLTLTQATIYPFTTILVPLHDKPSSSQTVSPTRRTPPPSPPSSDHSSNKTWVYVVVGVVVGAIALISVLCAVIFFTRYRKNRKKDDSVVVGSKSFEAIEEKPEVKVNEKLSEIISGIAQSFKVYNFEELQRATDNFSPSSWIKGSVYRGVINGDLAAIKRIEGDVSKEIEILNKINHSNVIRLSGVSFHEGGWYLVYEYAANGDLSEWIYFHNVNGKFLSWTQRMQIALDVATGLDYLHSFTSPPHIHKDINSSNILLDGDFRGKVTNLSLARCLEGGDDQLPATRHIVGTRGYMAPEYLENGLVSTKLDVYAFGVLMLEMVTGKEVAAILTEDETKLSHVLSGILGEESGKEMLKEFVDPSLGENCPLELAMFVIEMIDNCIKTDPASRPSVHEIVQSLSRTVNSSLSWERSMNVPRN
LYR3, sequence (G7KAT5 entry or part of it): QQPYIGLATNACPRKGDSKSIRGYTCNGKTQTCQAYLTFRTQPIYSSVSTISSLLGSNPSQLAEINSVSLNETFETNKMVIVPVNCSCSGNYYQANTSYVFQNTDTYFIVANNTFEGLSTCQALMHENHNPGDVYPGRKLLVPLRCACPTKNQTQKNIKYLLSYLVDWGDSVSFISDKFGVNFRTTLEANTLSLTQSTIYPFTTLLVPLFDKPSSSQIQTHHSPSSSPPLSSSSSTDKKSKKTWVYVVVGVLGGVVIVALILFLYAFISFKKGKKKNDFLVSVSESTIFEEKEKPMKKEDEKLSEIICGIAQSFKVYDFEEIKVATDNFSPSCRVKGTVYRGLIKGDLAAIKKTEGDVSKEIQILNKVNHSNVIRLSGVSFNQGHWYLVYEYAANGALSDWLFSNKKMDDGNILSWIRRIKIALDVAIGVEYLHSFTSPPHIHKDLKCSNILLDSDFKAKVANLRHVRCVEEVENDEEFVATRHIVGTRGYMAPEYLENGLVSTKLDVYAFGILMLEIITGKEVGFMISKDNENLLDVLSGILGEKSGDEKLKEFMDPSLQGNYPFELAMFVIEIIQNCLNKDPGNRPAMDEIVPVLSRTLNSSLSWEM
PsLYR3, sequence (A0A9D5BD18 entry or part of it): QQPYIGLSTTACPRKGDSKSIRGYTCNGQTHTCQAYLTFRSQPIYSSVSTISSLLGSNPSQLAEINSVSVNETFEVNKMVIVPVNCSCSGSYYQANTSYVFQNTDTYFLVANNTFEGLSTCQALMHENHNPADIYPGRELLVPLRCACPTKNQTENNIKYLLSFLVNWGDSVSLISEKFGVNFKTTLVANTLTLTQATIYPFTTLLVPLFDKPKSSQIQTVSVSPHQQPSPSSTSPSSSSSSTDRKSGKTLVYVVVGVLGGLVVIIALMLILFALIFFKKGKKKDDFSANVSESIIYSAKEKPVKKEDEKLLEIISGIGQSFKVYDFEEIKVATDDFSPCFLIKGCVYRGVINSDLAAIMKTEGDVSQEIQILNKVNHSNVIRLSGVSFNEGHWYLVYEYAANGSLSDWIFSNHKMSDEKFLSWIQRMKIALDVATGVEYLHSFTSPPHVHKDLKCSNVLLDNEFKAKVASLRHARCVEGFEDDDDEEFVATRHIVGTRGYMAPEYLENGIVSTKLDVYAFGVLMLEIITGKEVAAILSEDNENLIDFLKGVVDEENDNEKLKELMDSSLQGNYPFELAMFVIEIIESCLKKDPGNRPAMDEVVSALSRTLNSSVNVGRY
LjLYS12, sequence (D3KTZ9 entry or part of it): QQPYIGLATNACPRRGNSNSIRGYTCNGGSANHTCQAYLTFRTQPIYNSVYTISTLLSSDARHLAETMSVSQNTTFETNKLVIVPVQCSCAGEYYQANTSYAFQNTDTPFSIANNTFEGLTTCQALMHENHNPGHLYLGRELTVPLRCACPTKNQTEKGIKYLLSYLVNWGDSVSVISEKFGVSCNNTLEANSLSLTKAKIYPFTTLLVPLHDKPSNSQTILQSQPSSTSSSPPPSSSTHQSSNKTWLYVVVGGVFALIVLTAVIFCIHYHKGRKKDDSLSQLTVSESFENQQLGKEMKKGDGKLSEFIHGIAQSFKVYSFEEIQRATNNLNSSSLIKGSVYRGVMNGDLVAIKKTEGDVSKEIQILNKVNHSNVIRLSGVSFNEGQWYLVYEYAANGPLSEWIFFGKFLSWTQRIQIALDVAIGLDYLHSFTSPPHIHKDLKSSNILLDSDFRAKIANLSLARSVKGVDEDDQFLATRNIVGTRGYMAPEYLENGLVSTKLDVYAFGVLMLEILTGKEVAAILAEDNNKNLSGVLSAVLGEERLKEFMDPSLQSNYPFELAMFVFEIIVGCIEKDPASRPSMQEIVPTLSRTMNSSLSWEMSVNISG
GmLYR3-11, sequence (I1LHL9 entry or part of it): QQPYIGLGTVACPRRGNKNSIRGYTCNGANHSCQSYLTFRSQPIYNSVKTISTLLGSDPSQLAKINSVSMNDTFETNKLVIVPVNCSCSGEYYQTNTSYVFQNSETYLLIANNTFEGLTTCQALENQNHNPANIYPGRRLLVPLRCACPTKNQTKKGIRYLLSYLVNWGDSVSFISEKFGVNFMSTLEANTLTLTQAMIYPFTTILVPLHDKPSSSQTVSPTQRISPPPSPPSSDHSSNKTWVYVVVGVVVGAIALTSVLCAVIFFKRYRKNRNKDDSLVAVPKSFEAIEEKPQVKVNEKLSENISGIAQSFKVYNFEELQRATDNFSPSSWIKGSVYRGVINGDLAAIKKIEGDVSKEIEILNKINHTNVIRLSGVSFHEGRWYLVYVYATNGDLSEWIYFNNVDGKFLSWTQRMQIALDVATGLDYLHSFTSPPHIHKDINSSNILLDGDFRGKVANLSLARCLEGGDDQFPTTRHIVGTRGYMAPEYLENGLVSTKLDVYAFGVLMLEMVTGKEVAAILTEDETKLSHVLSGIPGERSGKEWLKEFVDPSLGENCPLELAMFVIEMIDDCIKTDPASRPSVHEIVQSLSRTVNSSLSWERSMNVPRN

## CC(=O)N[C@H]1[C@H](O[C@H]2[C@H](O)[C@@H](NC(C)=O)[C@H](O[C@H]3[C@H](O)[C@@H](NC(C)=O)C(O)O[C@@H]3CO)O[C@@H]2CO)O[C@H](CO)[C@@H](O[C@@H]2O[C@H](CO)[C@@H](O[C@@H]3O[C@H](CO)[C@@H](O)[C@H](O)[C@H]3NC(C)=O)[C@H](O)[C@H]2NC(C)=O)[C@@H]1O (stereo partly shown) [CO-V]
LYR3
  Ki: 12000 nM
PsLYR3
  Ki: > 10000 nM
GmLYR3-1
  Ki: > 10000 nM
GmLYR3-11
  Ki: > 10000 nM
LjLYS12
  Ki: > 10000 nM
PvLYR3
  Ki: > 10000 nM

## peptidoglycan
LYR3
  affinity / competition for binding to LYR3 (in words): no competition

## CC(=O)N[C@H]1[C@H](O[C@H]2[C@H](O)[C@@H](NC(C)=O)[C@H](O[C@H]3[C@H](O)[C@@H](NC(C)=O)C(O)O[C@@H]3CO)O[C@@H]2CO)O[C@H](CO)[C@@H](O[C@@H]2O[C@H](CO)[C@@H](O[C@@H]3O[C@H](CO)[C@@H](O[C@@H]4O[C@H](CO)[C@@H](O)[C@H](O)[C@H]4NC(C)=O)[C@H](O)[C@H]3NC(C)=O)[C@H](O)[C@H]2NC(C)=O)[C@@H]1O (stereo partly shown) [CO-VI]
LYR3
  Ki: 1200 nM

## CCCCCC/C=C\CCCCCCCC(=O)N[C@H]1[C@H](O[C@H]2[C@H](O)[C@@H](NC(C)=O)[C@H](O[C@H]3[C@H](O)[C@@H](NC(C)=O)[C@H](O[C@H]4[C@H](O)[C@@H](NC(C)=O)C(O)O[C@@H]4COS(=O)(=O)O)O[C@@H]3CO)O[C@@H]2CO)O[C@H](CO)[C@@H](O)[C@@H]1O (stereo partly drawn) [LCO-IV(S, C16:1Δ9)]
LYR3
  Ki: 21 nM

## CCCCCCCCCCCCCCCC(=O)N[C@H]1[C@H](O[C@H]2[C@H](O)[C@@H](NC(C)=O)[C@H](O[C@H]3[C@H](O)[C@@H](NC(C)=O)[C@H](O[C@H]4[C@H](O)[C@@H](NC(C)=O)C(O)O[C@@H]4COS(=O)(=O)O)O[C@@H]3CO)O[C@@H]2CO)O[C@H](CO)[C@@H](O)[C@@H]1O (stereo partly drawn) [LCO-IV(S, C16:0)]
LYR3
  Ki: 26 nM
PsLYR3
  Ki: 24 nM
GmLYR3-1
  Ki: 18 nM
GmLYR3-11
  Ki: 32 nM
LjLYS12
  Ki: 11 nM
PvLYR3
  Ki: 17 nM

## CCCCCCCC/C=C\CCCCCCCC(=O)N[C@H]1[C@H](O[C@H]2[C@H](O)[C@@H](NC(C)=O)[C@H](O[C@H]3[C@H](O)[C@@H](NC(C)=O)[C@H](O[C@H]4[C@H](O)[C@@H](NC(C)=O)C(O)O[C@@H]4CO)O[C@@H]3CO)O[C@@H]2CO)O[C@H](CO)[C@@H](O)[C@@H]1O (stereo partly shown) [LCO-IV(C18:1Δ9)]
[1]
  binding of the radiolabeled photoactivatable ligand to the 100 kDa polypeptide in presence of excess competitor: inhibited
LYR3
  Ki: 22 nM

## CCCCCCCCCCCCCCCC(=O)N[C@H]1[C@H](O[C@H]2[C@H](O)[C@@H](NC(C)=O)[C@H](O[C@H]3[C@H](O)[C@@H](NC(C)=O)[C@H](O[C@H]4[C@H](O)[C@@H](NC(C)=O)C(O)O[C@@H]4CO)O[C@@H]3CO)O[C@@H]2CO)O[C@H](CO)[C@@H](O)[C@@H]1O (stereo partly shown) [LCO-IV(C16:0)]
LYR3
  Ki: 15 nM
PsLYR3
  Ki: 50 nM
GmLYR3-1
  Ki: 70 nM
GmLYR3-11
  Ki: 140 nM
LjLYS12
  Ki: 42 nM
PvLYR3
  Ki: 23 nM

## CCCCCC/C=C\CCCCCCCC(=O)N[C@H]1[C@H](O[C@H]2[C@H](O)[C@@H](NC(C)=O)[C@H](O[C@H]3[C@H](O)[C@@H](NC(C)=O)[C@H](O[C@H]4[C@H](O)[C@@H](NC(C)=O)[C@H](O[C@H]5[C@H](O)[C@@H](NC(C)=O)C(O)O[C@@H]5CO)O[C@@H]4CO)O[C@@H]3CO)O[C@@H]2CO)O[C@H](CO)[C@@H](O)[C@@H]1O (stereo partly shown) [LCO-V(C16:1Δ9)]
LYR3
  Ki: 4.3 nM
  affinity / competition for binding to LYR3 (in words): slightly higher

## CCCCCC/C=C\CCCCC/C=C/C(=O)N[C@H]1[C@H](O[C@H]2[C@H](O)[C@@H](NC(C)=O)[C@H](O[C@H]3[C@H](O)[C@@H](NC(C)=O)[C@H](O[C@H]4[C@H](O)[C@@H](NC(C)=O)C(O)O[C@@H]4COS(=O)(=O)O)O[C@@H]3CO)O[C@@H]2CO)O[C@H](CO)[C@@H](O)[C@@H]1O (stereo partly drawn) [LCO-IV(S, C16:2Δ2, 9)]
[1]
  binding of the radiolabeled photoactivatable ligand to the 100 kDa polypeptide in presence of excess competitor: completely abolished
PsLYR3; read-out: Affinity (Kd)
  Kd: 31 nM
GmLYR3-1; read-out: Affinity (Kd)
  Kd: 32 nM
GmLYR3-11; read-out: Affinity (Kd)
  Kd: 64 nM
LjLYS12; read-out: Affinity (Kd)
  Kd: 33 nM
PvLYR3; read-out: Affinity (Kd)
  Kd: 40 nM

## CCCCCCCC/C=C\CCCCCCCC(=O)N[C@H]1[C@H](O[C@H]2[C@H](O)[C@@H](NC(C)=O)[C@H](O[C@H]3[C@H](O)[C@@H](NC(C)=O)[C@H](O[C@H]4[C@H](O)[C@@H](NC(C)=O)C(O)O[C@@H]4COS(=O)(=O)O)O[C@@H]3CO)O[C@@H]2CO)O[C@H](CO)[C@@H](O)[C@@H]1O (stereo partly drawn) [LCO-IV(S, C18:1Δ9)]
[1]
  binding of the radiolabeled photoactivatable ligand to the 100 kDa polypeptide in presence of excess competitor: inhibited
LYR3
  Ki: 13.5 nM
PsLYR3
  Ki: 16 nM
GmLYR3-1
  Ki: 12 nM
GmLYR3-11
  Ki: 19 nM
LjLYS12
  Ki: 7 nM
PvLYR3
  Ki: 13 nM

## CCCCCC/C=C\CCCCCCCC(=O)N[C@H]1[C@H](O[C@H]2[C@H](O)[C@@H](NC(C)=O)[C@H](O[C@H]3[C@H](O)[C@@H](NC(C)=O)C(O)O[C@@H]3CO)O[C@@H]2CO)O[C@H](CO)[C@@H](O)[C@@H]1O (stereo partly shown) [LCO-III(C16:1Δ9)]
LYR3
  Ki: 79 nM

## CCCCCC/C=C\CCCCCCCC(=O)N[C@H]1[C@H](O[C@H]2[C@H](O)[C@@H](NC(C)=O)C(O)O[C@@H]2CO)O[C@H](CO)[C@@H](O)[C@@H]1O (stereo partly shown) [LCO-II(C16:1Δ9)]
LYR3
  Ki: > 5000 nM
  affinity / competition for binding to LYR3 (in words): very low

## CCCCCC/C=C\CCCCC/C=C/C(=O)N[C@H]1[C@H](O[C@H]2[C@H](O)[C@@H](NC(C)=O)[C@H](O[C@H]3[C@H](O)[C@@H](NC(C)=O)[C@H](O[C@H]4[C@H](O)[C@@H](NC(C)=O)C(O)O[C@@H]4CO)O[C@@H]3CO)O[C@@H]2CO)O[C@H](CO)[C@@H](O)[C@@H]1O (stereo partly shown) [LCO-IV(C16:2Δ2, 9)]
LYR3
  Ki: 30 nM

## CCCCCCCC/C=C\CCCCC/C=C/C(=O)N[C@H]1[C@H](O[C@H]2[C@H](O)[C@@H](NC(C)=O)[C@H](O[C@H]3[C@H](O)[C@@H](NC(C)=O)[C@H](O[C@H]4[C@H](O)[C@@H](NC(C)=O)C(O)O[C@@H]4COS(=O)(=O)O)O[C@@H]3CO)O[C@@H]2CO)O[C@H](CO)[C@@H](O)[C@@H]1O (stereo partly drawn) [LCO-IV(S, C18:2Δ2, 9)]
LYR3
  Ki: 7 nM
